One test deals with T1, PI3Kα (wild-type) (Homo sapiens, UniProt P42336).
T1 construct: made in house; host or cells: SF9 insect cells
The experiment in a line: PI3 Kinase TR-FRET assay, PI3Kα (wild-type). The settings on record: wild-type P110/P85α, 10 μM ATP. It is filed as biochemical. The essentials: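 Sf9-expressed, Ni-purified p110/p85α (5 ng) with PIP2 was preincubated with compound for 60 min at room temperature in buffer with 40 mM MgCl2 and 5 mM DTT. The reaction ran 30 min at room temperature with 10 μM PIP2 and 10 μM ATP. The TR-FRET 665/615 nm ratio was used to derive IC50 from dose-response curves.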
For orientation: TR-FRET usually uses a lanthanide donor and a delayed reading to cut background.

Another test has as its target T2, mTOR kinase (Homo sapiens, UniProt P42345).
T2 construct: purchased Millipore, USA
Description: mTOR kinase TR-FRET assay. It is filed as biochemical. The settings on record: 20 μM ATP. The essentials:
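Test compounds were pre-incubated 60 min with mTOR (5 ng), then ULight-p70 S6K (Thr389) peptide (50 nM) and ATP (20 μM) were added in HEPES 50 mM pH 7.5, EGTA, MnCl2 3 mM. After 60 min at room temperature, EDTA stop and Eu-anti-phospho antibody TR-FRET (665/615 nm) gave IC50 from sigmoidal variable-slope fits.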

For a further test, the system named is PC3 cells. Description: XTT assay for cell viability, PC3 cells. It counts as cell-based. The conditions noted are these: Homo sapiens, PC-3; PC3 cell proliferation, 96 hours. On the procedure:
Using a commercial kit from Sigma Aldrich (Catalog #X34251) and following its protocol, PC3 cells in the log phase of growth were employed and seeded at an optimal density of 1000 cell/well on to 96 well plates and incubated for 24 hours followed by the addition of compounds of formula (I) in serial dilutions. Compound dilutions were made in DMSO. The cells were incubated with the compounds of formula (I) for 96 hours and XTT tetrazolium dye (Sigma, USA) was subsequently added and incubated at 37° C. After the color formation, absorbance was measured at 465 nm in a Spectramax® Gemini spectrophotometer. EC50 values were calculated using a sigmoidal dose response curve fit in GraphPad Prism® v5 software. The tested compounds of formula (I) which caused inhibition of PC3 cell proliferation as determined by this assay protocol are shown in Table 2.

T2 sequence (P42345 1362-2549 limits assumed): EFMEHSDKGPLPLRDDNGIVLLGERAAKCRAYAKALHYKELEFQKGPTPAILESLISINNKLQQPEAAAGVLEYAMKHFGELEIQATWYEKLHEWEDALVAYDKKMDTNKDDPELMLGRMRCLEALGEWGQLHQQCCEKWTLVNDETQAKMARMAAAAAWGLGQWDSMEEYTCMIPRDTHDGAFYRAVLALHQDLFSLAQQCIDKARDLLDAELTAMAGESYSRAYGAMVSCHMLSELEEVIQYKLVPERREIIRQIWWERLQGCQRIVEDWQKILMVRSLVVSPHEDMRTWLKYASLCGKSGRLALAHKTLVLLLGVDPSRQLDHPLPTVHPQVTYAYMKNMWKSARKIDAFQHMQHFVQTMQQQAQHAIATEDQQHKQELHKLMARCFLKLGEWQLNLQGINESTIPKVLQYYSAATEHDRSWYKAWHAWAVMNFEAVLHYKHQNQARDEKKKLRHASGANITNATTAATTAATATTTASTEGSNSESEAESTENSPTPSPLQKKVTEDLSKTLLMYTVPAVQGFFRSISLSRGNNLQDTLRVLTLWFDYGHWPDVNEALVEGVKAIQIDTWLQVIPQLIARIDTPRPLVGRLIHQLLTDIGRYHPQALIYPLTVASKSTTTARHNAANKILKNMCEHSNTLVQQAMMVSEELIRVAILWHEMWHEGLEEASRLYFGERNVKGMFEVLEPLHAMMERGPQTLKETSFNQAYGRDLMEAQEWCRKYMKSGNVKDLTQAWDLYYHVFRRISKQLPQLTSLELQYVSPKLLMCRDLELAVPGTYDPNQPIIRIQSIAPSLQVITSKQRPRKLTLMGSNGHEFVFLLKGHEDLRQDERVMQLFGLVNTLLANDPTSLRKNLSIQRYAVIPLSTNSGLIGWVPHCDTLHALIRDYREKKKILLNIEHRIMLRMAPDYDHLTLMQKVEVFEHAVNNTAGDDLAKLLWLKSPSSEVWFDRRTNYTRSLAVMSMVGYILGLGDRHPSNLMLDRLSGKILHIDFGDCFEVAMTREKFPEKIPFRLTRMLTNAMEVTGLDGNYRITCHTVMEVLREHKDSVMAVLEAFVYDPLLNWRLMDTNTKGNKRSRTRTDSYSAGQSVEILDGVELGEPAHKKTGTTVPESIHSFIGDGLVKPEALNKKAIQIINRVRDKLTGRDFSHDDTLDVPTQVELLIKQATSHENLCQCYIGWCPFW
T1 sequence (P42336 whole entry, species assumed): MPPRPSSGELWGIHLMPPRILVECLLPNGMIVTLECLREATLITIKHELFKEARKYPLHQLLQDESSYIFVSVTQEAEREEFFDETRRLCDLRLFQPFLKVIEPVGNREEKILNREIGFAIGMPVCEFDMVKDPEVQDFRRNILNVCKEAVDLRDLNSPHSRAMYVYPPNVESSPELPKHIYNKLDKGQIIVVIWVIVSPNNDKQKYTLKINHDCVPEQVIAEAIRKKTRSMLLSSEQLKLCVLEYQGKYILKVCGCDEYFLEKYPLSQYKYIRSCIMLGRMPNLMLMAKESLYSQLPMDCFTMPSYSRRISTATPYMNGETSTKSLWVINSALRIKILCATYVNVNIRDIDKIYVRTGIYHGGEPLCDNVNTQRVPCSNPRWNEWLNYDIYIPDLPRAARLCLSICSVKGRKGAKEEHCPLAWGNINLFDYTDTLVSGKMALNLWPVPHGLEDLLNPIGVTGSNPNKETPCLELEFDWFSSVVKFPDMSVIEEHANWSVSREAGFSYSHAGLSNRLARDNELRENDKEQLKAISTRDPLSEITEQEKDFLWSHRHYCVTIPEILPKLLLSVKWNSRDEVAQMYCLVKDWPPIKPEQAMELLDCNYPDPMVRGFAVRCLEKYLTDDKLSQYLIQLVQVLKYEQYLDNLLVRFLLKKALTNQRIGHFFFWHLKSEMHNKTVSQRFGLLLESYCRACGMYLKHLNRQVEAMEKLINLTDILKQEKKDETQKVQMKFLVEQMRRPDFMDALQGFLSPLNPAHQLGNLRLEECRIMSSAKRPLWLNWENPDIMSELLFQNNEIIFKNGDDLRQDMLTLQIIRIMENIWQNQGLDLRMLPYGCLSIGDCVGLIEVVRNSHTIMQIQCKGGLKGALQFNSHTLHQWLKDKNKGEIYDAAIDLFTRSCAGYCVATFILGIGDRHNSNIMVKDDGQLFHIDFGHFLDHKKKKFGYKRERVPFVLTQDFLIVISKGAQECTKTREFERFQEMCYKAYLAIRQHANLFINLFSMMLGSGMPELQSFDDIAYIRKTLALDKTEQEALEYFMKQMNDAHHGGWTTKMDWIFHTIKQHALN
T1 sequence (P27986 whole entry partner, species assumed): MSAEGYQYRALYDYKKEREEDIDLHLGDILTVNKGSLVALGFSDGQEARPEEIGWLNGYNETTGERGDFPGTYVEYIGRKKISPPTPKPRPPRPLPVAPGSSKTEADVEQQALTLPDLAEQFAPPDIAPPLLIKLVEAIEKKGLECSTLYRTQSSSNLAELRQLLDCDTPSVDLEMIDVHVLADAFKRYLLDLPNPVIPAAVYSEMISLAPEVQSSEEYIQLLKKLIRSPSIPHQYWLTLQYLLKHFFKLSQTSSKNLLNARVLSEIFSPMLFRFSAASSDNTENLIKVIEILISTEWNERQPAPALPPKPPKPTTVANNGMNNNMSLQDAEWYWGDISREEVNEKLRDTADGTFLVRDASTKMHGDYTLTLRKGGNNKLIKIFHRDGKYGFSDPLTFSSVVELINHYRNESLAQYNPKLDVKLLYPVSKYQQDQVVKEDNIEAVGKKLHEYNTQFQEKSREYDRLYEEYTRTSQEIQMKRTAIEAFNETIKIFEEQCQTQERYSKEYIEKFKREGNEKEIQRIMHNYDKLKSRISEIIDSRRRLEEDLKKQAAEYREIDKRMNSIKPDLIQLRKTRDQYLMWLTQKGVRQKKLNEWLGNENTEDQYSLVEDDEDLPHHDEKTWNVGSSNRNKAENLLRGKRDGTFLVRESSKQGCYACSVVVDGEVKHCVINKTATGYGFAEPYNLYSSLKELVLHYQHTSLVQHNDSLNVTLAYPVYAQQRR

Take `Nc1ncc(-c2nc(N3CCOCC3)c3ncc(-c4ccc(C(=O)Nc5cccnc5)o4)cc3n2)cn1` [Example 34, 5-(2-(2-aminopyrimidin-5-yl)-4-morpholino-pyrido[3,2-d]pyrimidin-7-yl)-N-(pyridin-3-yl)furan-2-carboxamide]: the IC50 against PI3Kα (wild-type) is less than 0.05 µM; against mTOR kinase, less than 0.05 µM; with PC3 cells, 0.1 to 0.5 µM.

Regarding `CC(=O)Nc1ccc(F)c(-c2cnc3c(N4CCOCC4)nc(-c4cnc(N)nc4)nc3c2)c1` [Example 55, N-(3-(2-(2-amino-pyrimidin-5-yl)-4-morpholinopyrido[3,2-d]pyrimidin-7-yl)-4-fluorophenyl)acetamide], the IC50 is less than 0.05 µM at PI3Kα (wild-type), 0.05 to 0.2 µM against mTOR kinase and 0.1 to 0.5 µM in the test with PC3 cells.

Consider `Nc1ncc(-c2nc(N3CCOCC3)c3ncc(-c4cccc(N5CCNCC5)c4)cc3n2)cn1` [Example 106, 5-(4-morpholino-7-(3-(piperazin-1-yl)-phenyl)pyrido[3,2-d]-pyrimidin-2-yl)pyrimidin-2-amine], for which the IC50 is less than 0.05 µM against PI3Kα (wild-type), 0.05 to 0.2 µM against mTOR kinase and 0.501 to 5 µM in the test on PC3 cells.

For `Nc1ncc(-c2nc(N3CCOCC3)c3ncc(-c4cccc(C(=O)Nc5ccncc5F)c4)cc3n2)cn1` [Example 97, 3-(2-(2-aminopyrimidin-5-yl)-4-morpholinopyrido[3,2-d]-pyrimidin-7-yl)-N-(3-fluoropyridin-4-yl)-benzamide], the results for the IC50 at PI3Kα (wild-type), against mTOR kinase and in the test with PC3 cells were less than 0.05 µM, less than 0.05 µM and 0.1 to 0.5 µM, respectively.

With `CN1CCN(c2ccc(-c3cnc4c(N5CCOCC5)nc(-c5cnc(N)nc5)nc4c3)cc2NC(=O)C2CC2)CC1` [Example 117, N-(5-(2-(2-amino-pyrimidin-5-yl)-4-morpholinopyrido[3,2-d]pyrimidin-7-yl)-2-(4-methylpiperazin-1-yl)-phenyl)cyclopropane-carboxamide], the IC50 on PI3Kα (wild-type) was less than 0.05 µM; on mTOR kinase, less than 0.05 µM; in the test on PC3 cells, 0.1 to 0.5 µM.

For the molecule `Cc1ccc(-c2cnc3c(N4CCOCC4)nc(-c4cnc(N)nc4)nc3c2)o1` [Example 26, 5-(7-(5-methylfuran-2-yl)-4-morpholino-pyrido[3,2-d]pyrimidin-2-yl)pyrimidin-2-amine], the IC50 was less than 0.05 µM at PI3Kα (wild-type), 0.05 to 0.2 µM against mTOR kinase and 0.501 to 5 µM in the test on PC3 cells.

Take `N#CC1(C(=O)Nc2cccc(-c3cnc4c(N5CCOCC5)nc(-c5cnc(N)nc5)nc4c3)c2F)CC1` [Example 125, N-(3-(2-(2-amino-pyrimidin-5-yl)-4-morpholinopyrido[3,2-d]pyrimidin-7-yl)-2-fluorophenyl)-1-cyanocyclopropane-carboxamide]: the IC50 at PI3Kα (wild-type) was less than 0.05 µM; on mTOR kinase, less than 0.05 µM; with PC3 cells it was 0.1 to 0.5 µM.

With `Nc1ncc(-c2nc(N3CCOCC3)c3ncc(-c4ccc(NC(=O)c5cccnc5)cc4)cc3n2)cn1` [Example 77, N-(4-(2-(2-amino-pyrimidin-5-yl)-4-morpholinopyrido[3,2-d]pyrimidin-7-yl)-phenyl)nicotinamide], the IC50 on PI3Kα (wild-type) was less than 0.05 µM; against mTOR kinase it was less than 0.05 µM; with PC3 cells, 0.1 to 0.5 µM.

For `N#CC1(C(=O)Nc2ccc(F)c(-c3cnc4c(N5CCOCC5)nc(-c5cnc(N)nc5)nc4c3)c2)CC1` [Example 124, N-(3-(2-(2-amino-pyrimidin-5-yl)-4-morpholinopyrido[3,2-d]pyrimidin-7-yl)-4-fluorophenyl)-1-cyanocyclopropane-carboxamide], the IC50 against PI3Kα (wild-type) was less than 0.05 µM; on mTOR kinase, 0.05 to 0.2 µM; with PC3 cells, greater than 1 µM.

`Nc1ncc(-c2nc(N3CCOCC3)c3ncc(-c4cccc(C(=O)N5CCN(CCO)CC5)c4)cc3n2)cn1` [Example 116, (3-(2-(2-aminopyrimidin-5-yl)-4-morpholinopyrido[3,2-d]-pyrimidin-7-yl)phenyl)(4-(2-hydroxyethyl)piperazin-1-yl)methanone]: the figures for the IC50 at PI3Kα (wild-type), at mTOR kinase and in the test with PC3 cells were less than 0.05 µM, 0.201 to 10 µM and 0.501 to 5 µM, respectively.

Take `CN(C)CCNC(=O)c1cccc(-c2cnc3c(N4CCOCC4)nc(-c4cnc(N)nc4)nc3c2)c1` [Example 102, 3-(2-(2-aminopyrimidin-5-yl)-4-morpholinopyrido[3,2-d]-pyrimidin-7-yl)-N-(2-(dimethylamino)ethyl)-benzamide]: the IC50 is less than 0.05 µM at PI3Kα (wild-type), 0.05 to 0.2 µM against mTOR kinase and 0.1 to 0.5 µM in the test on PC3 cells.

Take `Nc1ncc(-c2nc(N3CCOCC3)c3ncc(-c4cccc(NC(=O)N5CCOCC5)c4)cc3n2)cn1` [Example 10, N-(3-(2-(2-aminopyrimidin-5-yl)-4-morpholinopyrido[3,2-d]pyrimidin-7-yl)-phenyl)morpholine-4-carboxamide]: the IC50 was less than 0.05 µM at PI3Kα (wild-type), less than 0.05 µM against mTOR kinase and 0.501 to 5 µM with PC3 cells.

In the case of `Nc1ncc(-c2nc(N3CCOCC3)c3ncc(-c4cccc(NC(=O)C56CC7CC(CC(C7)C5)C6)c4)cc3n2)cn1` [Example 65, N-(3-(2-(2-amino-pyrimidin-5-yl)-4-morpholinopyrido[3,2-d]pyrimidin-7-yl)-phenyl)adamantane-1-carboxamide], the figures for the IC50 at PI3Kα (wild-type), on mTOR kinase and in the test with PC3 cells were less than 0.05 µM, 0.201 to 10 µM and 0.501 to 5 µM, respectively.

Consider `Nc1ncc(-c2nc(N3CCOCC3)c3ncc(-c4cccc(C(=O)NC5CC5)c4)cc3n2)cn1` [Example 98, 3-(2-(2-aminopyrimidin-5-yl)-4-morpholinopyrido[3,2-d]-pyrimidin-7-yl)-N-cyclopropylbenzamide], for which the half-inhibitory concentration (IC50) was less than 0.05 µM on PI3Kα (wild-type), less than 0.05 µM on mTOR kinase and 0.1 to 0.5 µM in the test on PC3 cells.

As for `Nc1ncc(-c2nc(N3CCOCC3)c3ncc(-c4ccc(C(=O)NC5CC5)cc4)cc3n2)cn1` [Example 4, 4-(2-(2-Aminopyrimidin-5-yl)-4-morpholinopyrido[3,2-d]pyrimidin-7-yl)-N-cyclopropylbenzamide], the IC50 at PI3Kα (wild-type) was less than 0.05 µM; against mTOR kinase, less than 0.05 µM; with PC3 cells, less than 0.1 µM.

With `Nc1ncc(-c2nc(N3CCOCC3)c3ncc(-c4cccc(NC(=O)C5CCCCC5)c4)cc3n2)cn1` [Example 60, N-(3-(2-(2-amino-pyrimidin-5-yl)-4-morpholinopyrido[3,2-d]pyrimidin-7-yl)-phenyl)cyclohexane-carboxamide], the IC50 is less than 0.05 µM on PI3Kα (wild-type), 0.05 to 0.2 µM against mTOR kinase and 0.501 to 5 µM in the test on PC3 cells.

As to `CNC(=O)Nc1cccc(-c2cnc3c(N4CCOCC4)nc(-c4cnc(N)nc4)nc3c2)c1` [Example 28, 1-(3-(2-(2-amino-pyrimidin-5-yl)-4-morpholinopyrido[3,2-d]pyrimidin-7-yl)phenyl)-3-methylurea], the results for the IC50 against PI3Kα (wild-type), at mTOR kinase and in the test with PC3 cells were less than 0.05 µM, 0.05 to 0.2 µM and 0.501 to 5 µM, respectively.

As to `Nc1ncc(-c2nc(N3CCOCC3)c3ncc(-c4cccc(N5CCN(CCO)CC5)c4)cc3n2)cn1` [Example 113, 2-(4-(3-(2-(2-amino-pyrimidin-5-yl)-4-morpholinopyrido[3,2-d]pyrimidin-7-yl)-phenyl)piperazin-1-yl)-ethanol], the IC50 against PI3Kα (wild-type) is less than 0.05 µM; against mTOR kinase it was less than 0.05 µM; in the test with PC3 cells it was 0.501 to 5 µM.

With `CN1CCN(C(=O)Nc2cccc(-c3cnc4c(N5CCOCC5)nc(-c5cnc(N)nc5)nc4c3)c2)CC1` [Example 89, N-(3-(2-(2-aminopyrimidin-5-yl)-4-morpholinopyrido[3,2-d]pyrimidin-7-yl)phenyl)-4-methylpiperazine-1-carboxamide], the results for the half-inhibitory concentration (IC50) against PI3Kα (wild-type), at mTOR kinase and in the test on PC3 cells were less than 0.05 µM, less than 0.05 µM and 0.501 to 5 µM, respectively.

As for `Nc1ncc(-c2nc(N3CCOCC3)c3ncc(-c4ccc(C(=O)Nc5ccncc5)cc4)cc3n2)cn1` [Example 38, 4-(2-(2-aminopyrimidin-5-yl)-4-morpholino-pyrido[3,2-d]pyrimidin-7-yl)-N-(pyridin-4-yl)-benzamide], the IC50 at PI3Kα (wild-type) is less than 0.05 µM; on mTOR kinase it was 0.05 to 0.2 µM; in the test on PC3 cells, greater than 1 µM.

Regarding `CN1CCN(c2cccc(-c3cnc4c(N5CCOCC5)nc(-c5cnc(N)nc5)nc4c3)c2)CC1` [Example 101, 5-(7-(3-(4-methyl-piperazin-1-yl)phenyl)-4-morpholinopyrido[3,2-d]-pyrimidin-2-yl)pyrimidin-2-amine], the figures for the IC50 against PI3Kα (wild-type), at mTOR kinase and in the test on PC3 cells were less than 0.05 µM, 0.05 to 0.2 µM and 0.1 to 0.5 µM, respectively.

For orientation: IC50 means the concentration at which inhibition is half-maximal. Low values mean higher potency, high ones lower potency.

For the origin of these results see patent publication US9145411B2, “Substituted amino-pyrimidine derivatives” (Asana Biosciences, LLC, priority 2012, dated 2015).
